The numbers were not newly measured in patent US20250230151A1, “COMPOUNDS FOR CANCERS DRIVEN BY BRAF MUTATION” (THE BOARD OF TRUSTEES OF THE UNIVERSITY OF ILLINOIS, priority 2021, published 2025), which cites them from elsewhere.

One data set concerns the target T1, P-gp (Homo sapiens, UniProt P08183).
T1 construct: host or cells: MDCK (MDR1-MDCK)
The note with it: background statement on dabrafenib; cited from earlier work.

For data set [1], the system named is melanoma brain metastatic lesions. The note with it: combined with trametinib, clinical trials; cited from earlier work.

T1 sequence (P08183 whole entry): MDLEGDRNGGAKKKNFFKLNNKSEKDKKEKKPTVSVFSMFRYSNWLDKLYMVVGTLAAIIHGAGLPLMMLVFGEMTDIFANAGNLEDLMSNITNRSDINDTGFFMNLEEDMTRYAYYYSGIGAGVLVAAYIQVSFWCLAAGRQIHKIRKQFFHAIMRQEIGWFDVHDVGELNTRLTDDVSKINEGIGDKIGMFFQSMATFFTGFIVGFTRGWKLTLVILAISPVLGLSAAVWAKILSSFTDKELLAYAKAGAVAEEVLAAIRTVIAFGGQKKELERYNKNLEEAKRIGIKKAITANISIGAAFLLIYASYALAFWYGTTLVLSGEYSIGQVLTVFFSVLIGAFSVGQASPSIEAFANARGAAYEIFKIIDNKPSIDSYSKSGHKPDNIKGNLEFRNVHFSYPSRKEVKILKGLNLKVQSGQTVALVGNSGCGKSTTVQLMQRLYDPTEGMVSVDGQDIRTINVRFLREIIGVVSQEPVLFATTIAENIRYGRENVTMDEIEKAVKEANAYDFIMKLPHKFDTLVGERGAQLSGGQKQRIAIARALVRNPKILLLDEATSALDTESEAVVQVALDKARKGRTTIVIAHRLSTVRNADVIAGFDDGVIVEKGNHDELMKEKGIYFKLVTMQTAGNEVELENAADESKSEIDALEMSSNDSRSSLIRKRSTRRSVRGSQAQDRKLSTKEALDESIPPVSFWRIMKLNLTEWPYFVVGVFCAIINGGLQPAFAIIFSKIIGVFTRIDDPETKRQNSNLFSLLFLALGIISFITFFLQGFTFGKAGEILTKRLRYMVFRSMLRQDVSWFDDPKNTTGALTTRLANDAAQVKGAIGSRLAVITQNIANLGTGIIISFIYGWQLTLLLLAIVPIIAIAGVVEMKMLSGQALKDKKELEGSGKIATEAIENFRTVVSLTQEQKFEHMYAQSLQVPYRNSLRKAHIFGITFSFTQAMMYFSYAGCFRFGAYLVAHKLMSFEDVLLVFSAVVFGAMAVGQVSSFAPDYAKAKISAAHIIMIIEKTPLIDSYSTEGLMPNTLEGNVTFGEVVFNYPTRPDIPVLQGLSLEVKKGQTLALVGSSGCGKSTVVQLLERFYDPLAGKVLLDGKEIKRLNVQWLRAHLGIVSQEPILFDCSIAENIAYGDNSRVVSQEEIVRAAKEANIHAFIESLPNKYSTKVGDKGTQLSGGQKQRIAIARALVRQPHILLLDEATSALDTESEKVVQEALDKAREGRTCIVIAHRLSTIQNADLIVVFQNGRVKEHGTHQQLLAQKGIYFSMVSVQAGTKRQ

Regarding `CC(C)(C)c1nc(-c2cccc(NS(=O)(=O)c3c(F)cccc3F)c2F)c(-c2ccnc(N)n2)s1` [Dabrafenib, reference compound], the “efflux ratio (recognized by P-gp)” value on P-gp is 11.4-18.3. In addition, in data set [1], the “duration of intracranial response” value is reported as 6.5 months.
